Target: PD-1/PD-L1 protein/protein interaction (Homo sapiens (Human), UniProt Q9NZQ7)
Assay: PD-1/PD-L1 Homogeneous Time-Resolved Fluorescence (HTRF) Binding Assay
Conditions: recombinant human PD-L1 (19-238) His-tag, human PD-1 (25-167) Fc tag; 25° C., PBS pH 7.4
Experimental: Example A. PD-1/PD-L1 Homogeneous Time-Resolved Fluorescence (HTRF) Binding Assay
The assays were conducted in a standard black 384-well polystyrene plate with a final volume of 20 μL. Inhibitors were first serially diluted in DMSO and then added to the plate wells before the addition of other reaction components. The final concentration of DMSO in the assay was 1%. The assays were carried out at 25° C. in the PBS buffer (pH 7.4) with 0.05% Tween-20 and 0.1% BSA. Recombinant human PD-L1 protein (19-238) with a His-tag at the C-terminus was purchased from AcroBiosystems (PD1-H5229). Recombinant human PD-1 protein (25-167) with Fc tag at the C-terminus was also purchased from AcroBiosystems (PD1-H5257). PD-L1 and PD-1 proteins were diluted in the assay buffer and 10 μL was added to the plate well. Plates were centrifuged and proteins were preincubated with inhibitors for 40 minutes. The incubation was followed by the addition of 10 μL of HTRF detection buffer supplemented with Europium cryptate-labeled anti-human IgG (PerkinElmer-AD0212) specific for Fc and anti-His antibody conjugated to SureLight®-Allophycocyanin (APC, PerkinElmer-AD0059H). After centrifugation, the plate was incubated at 25° C. for 60 min. before reading on a PHERAstar FS plate reader (665 nm/620 nm ratio). Final concentrations in the assay were […], 10 nM PD-L1, 1 nM europium anti-human IgG and 20 nM anti-His-Allophycocyanin. IC50 determination was performed by fitting the curve of percent control activity versus the log of the inhibitor concentration using the GraphPad Prism 5.0 software.
Data obtained for the Example compounds using the PD-1/PD-L homogenous time-resolved fluorescence (HTRF) binding assay described in Example A is provided in Table 1.

Sequence of PD-1/PD-L1 protein/protein interaction (Q9NZQ7 19-238): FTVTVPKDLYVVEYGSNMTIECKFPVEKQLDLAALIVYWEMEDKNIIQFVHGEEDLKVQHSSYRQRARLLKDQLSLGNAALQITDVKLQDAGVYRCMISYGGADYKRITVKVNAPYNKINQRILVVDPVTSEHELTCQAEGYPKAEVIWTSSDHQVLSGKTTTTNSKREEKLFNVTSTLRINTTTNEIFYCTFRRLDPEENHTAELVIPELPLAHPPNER

SMILES | IC50 [µM]
Cc1c(-c2ccccc2)cccc1-c1nc2c(s1)CN(C[C@@H]1C[C@H]1C(=O)O)CC2 (relative stereo) [Example 9, Trans-2-{[2-(2-methylbiphenyl-3-yl)-6,7-dihydro[1,3]thiazolo[5,4-c]pyridin-5(4H)-yl]methyl}cyclopropanecarboxylic acid] | 0.1 to 0.5
Cc1c(-c2ccccc2)cccc1-c1nc2c(s1)CCNC2 [Example 1, 2-(2-methylbiphenyl-3-yl)-4,5,6,7-tetrahydro[1,3]thiazolo[4,5-c]pyridine] | 0.5 to 10
Cc1c(-c2ccccc2)cccc1-c1nc2c(s1)CNCC2 [Example 2, 2-(2-methylbiphenyl-3-yl)-4,5,6,7-tetrahydro[1,3]thiazolo[5,4-c]pyridine] | ≤ 0.1
Cc1c(-c2ccccc2)cccc1-c1nc2c(s1)CN(C)CC2 [Example 3, 5-methyl-2-(2-methylbiphenyl-3-yl)-4,5,6,7-tetrahydro[1,3]thiazolo[5,4-c]pyridine] | ≤ 0.1
Cc1c(-c2ccccc2)cccc1-c1nc2c(s1)CN(CCO)CC2 [Example 4, 2-[2-(2-methylbiphenyl-3-yl)-6,7-dihydro[1,3]thiazolo[5,4-c]pyridin-5(4H)-yl]ethanol] | ≤ 0.1
Cc1c(-c2ccccc2)cccc1-c1nc2c(s1)CN(C[C@H](C)O)CC2 [Example 5, (2S)-1-[2-(2-methylbiphenyl-3-yl)-6,7-dihydro[1,3]thiazolo[5,4-c]pyridin-5(4H)-yl]propan-2-ol] | ≤ 0.1
Cc1c(-c2ccccc2)cccc1-c1nc2c(s1)CN(C1CCOCC1)CC2 [Example 6, 2-(2-methylbiphenyl-3-yl)-5-(tetrahydro-2H-pyran-4-yl)-4,5,6,7-tetrahydro[1,3]thiazolo[5,4-c]pyridine] | 0.1 to 0.5
Cc1c(-c2ccccc2)cccc1-c1nc2c(s1)CN(C1CCC(C(=O)O)CC1)CC2 (stereo not shown) [Example 7, 4-[2-(2-methylbiphenyl-3-yl)-6,7-dihydro[1,3]thiazolo[5,4-c]pyridin-5(4H)-yl]cyclohexanecarboxylic acid] | ≤ 0.1
Cc1c(-c2ccccc2)cccc1-c1nc2c(s1)CN(CCCC(=O)O)CC2 [Example 8, 4-[2-(2-methylbiphenyl-3-yl)-6,7-dihydro[1,3]thiazolo[5,4-c]pyridin-5(4H)-yl]butanoic acid] | ≤ 0.1
Cc1c(-c2ccccc2)cccc1-c1nc2c(s1)CN(Cc1cn[nH]c1)CC2 [Example 10, 2-(2-methylbiphenyl-3-yl)-5-(1H-pyrazol-4-ylmethyl)-4,5,6,7-tetrahydro[1,3]thiazolo[5,4-c]pyridine] | 0.1 to 0.5
Cc1c(-c2ccccc2)cccc1-c1nc2c(s1)CN(C1CCC(CC#N)CC1)CC2 (stereo not shown) [Example 11, {4-[2-(2-methylbiphenyl-3-yl)-6,7-dihydro[1,3]thiazolo[5,4-c]pyridin-5(4H)-yl]cyclohexyl}acetonitrile] | 0.1 to 0.5
Cc1c(-c2ccccc2)cccc1-c1cc2n(n1)CCNC2 [Example 12, 2-(2-methylbiphenyl-3-yl)-4,5,6,7-tetrahydropyrazolo[1,5-a]pyrazine] | 0.1 to 0.5
N#Cc1c(-c2ccc3c(c2)OCCO3)cccc1-c1nc2c(s1)CNCC2 [Example 13, 2-(2,3-dihydro-1,4-benzodioxin-6-yl)-6-(4,5,6,7-tetrahydro[1,3]thiazolo[5,4-c]pyridin-2-yl)benzonitrile] | ≤ 0.1
Cc1c(-c2ccccc2)ccnc1-c1nc2c(s1)CNCC2 [Example 14, 2-(3-methyl-4-phenylpyridin-2-yl)-4,5,6,7-tetrahydro[1,3]thiazolo[5,4-c]pyridine] | ≤ 0.1
COc1cccc(-c2ccnc(-c3nc4c(s3)CNCC4)c2C)c1 [Example 15, 2-[4-(3-methoxyphenyl)-3-methylpyridin-2-yl]-4,5,6,7-tetrahydro[1,3]thiazolo[5,4-c]pyridine] | ≤ 0.1
Cc1c(-c2ccc3c(c2)OCCO3)ccnc1-c1nc2c(s1)CNCC2 [Example 16, 2-[4-(2,3-dihydro-1,4-benzodioxin-6-yl)-3-methylpyridin-2-yl]-4,5,6,7-tetrahydro[1,3]thiazolo[5,4-c]pyridine] | ≤ 0.1
Cc1c(-c2ccccc2)cccc1-n1cc2c(n1)CCNC2 [Example 17, 2-(2-methylbiphenyl-3-yl)-4,5,6,7-tetrahydro-2H-pyrazolo[4,3-c]pyridine] | 0.1 to 0.5
Cc1c(-c2ccccc2)cccc1-n1cc2c(n1)CNCC2 [Example 18, 2-(2-methylbiphenyl-3-yl)-4,5,6,7-tetrahydro-2H-pyrazolo[3,4-c]pyridine] | ≤ 0.1
Cc1c(-c2ccccc2)cccc1-c1nc2c(s1)CNCC2(C)C [Example 19, 7,7-dimethyl-2-(2-methylbiphenyl-3-yl)-4,5,6,7-tetrahydro[1,3]thiazolo[5,4-c]pyridine] | 0.5 to 10

SMILES | IC50 [µM]
Cc1c(-c2ccccc2)cccc1-c1cn2c(n1)CNCC2 [Example 20, 2-(2-methylbiphenyl-3-yl)-5,6,7,8-tetrahydroimidazo[1,2-a]pyrazine] | 0.5 to 10
Cc1c(-c2ccccc2)cccc1-c1nc2c([nH]1)CCNC2 [Example 21, 2-(2-methylbiphenyl-3-yl)-4,5,6,7-tetrahydro-1H-imidazo[4,5-c]pyridine] | 0.5 to 10
Cc1c(-c2ccccc2)cccc1-c1nc2c(o1)CNCC2 [Example 22, 2-(2-methylbiphenyl-3-yl)-4,5,6,7-tetrahydro[1,3]oxazolo[5,4-c]pyridine] | ≤ 0.1
Cc1c(-c2ccccc2)cccc1-c1nc2c(o1)CCNC2 [Example 23, 2-(2-methylbiphenyl-3-yl)-4,5,6,7-tetrahydro[1,3]oxazolo[4,5-c]pyridine] | ≤ 0.1
Cc1c(-c2ccccc2)cccc1-c1nc2c(o1)CCN(C)C2 [Example 24, 5-methyl-2-(2-methylbiphenyl-3-yl)-4,5,6,7-tetrahydro[1,3]oxazolo[4,5-c]pyridine] | ≤ 0.1
Cc1c(-c2ccccc2)cccc1-c1nc2n(n1)CCNC2 [Example 25, 2-(2-methylbiphenyl-3-yl)-5,6,7,8-tetrahydro[1,2,4]triazolo[1,5-a]pyrazine] | 0.1 to 0.5
Cc1c(-c2nc3c(s2)CNCC3)ccnc1-c1ccc2c(c1)OCCO2 [Example 26, 2-[2-(2,3-dihydro-1,4-benzodioxin-6-yl)-3-methylpyridin-4-yl]-4,5,6,7-tetrahydro[1,3]thiazolo[5,4-c]pyridine] | 0.5 to 10
Cc1c(-c2ccsc2)cccc1-c1nc2c(s1)CNCC2 [Example 27, 2-[2-methyl-3-(3-thienyl)phenyl]-4,5,6,7-tetrahydro[1,3]thiazolo[5,4-c]pyridine] | 0.1 to 0.5
COc1cccc(-c2cccc(-c3nc4c(s3)CNCC4)c2C)c1 [Example 28, 2-(3′-methoxy-2-methylbiphenyl-3-yl)-4,5,6,7-tetrahydro[1,3]thiazolo[5,4-c]pyridine] | ≤ 0.1
Cc1c(C2=CCOCC2)cccc1-c1nc2c(s1)CNCC2 [Example 29, 2-[3-(3,6-dihydro-2H-pyran-4-yl)-2-methylphenyl]-4,5,6,7-tetrahydro[1,3]thiazolo[5,4-c]pyridine] | 0.5 to 10
COc1cc(-c2cccc(-c3nc4c(s3)CNCC4)c2C)ccn1 [Example 30, 2-[3-(2-methoxypyridin-4-yl)-2-methylphenyl]-4,5,6,7-tetrahydro[1,3]thiazolo[5,4-c]pyridine] | 0.1 to 0.5
Cc1c(-c2ccc(F)cn2)cccc1-c1nc2c(s1)CNCC2 [Example 31, 2-[3-(5-fluoropyridin-2-yl)-2-methylphenyl]-4,5,6,7-tetrahydro[1,3]thiazolo[5,4-c]pyridine] | 0.5 to 10
Cc1c(C2=CCCCC2)cccc1-c1nc2c(s1)CNCC2 [Example 32, 2-(3-cyclohex-1-en-1-yl-2-methylphenyl)-4,5,6,7-tetrahydro[1,3]thiazolo[5,4-c]pyridine] | ≤ 0.1
CCOc1cccc(-c2cccc(-c3nc4c(s3)CNCC4)c2C)c1 [Example 33, 2-(3′-ethoxy-2-methylbiphenyl-3-yl)-4,5,6,7-tetrahydro[1,3]thiazolo[5,4-c]pyridine] | ≤ 0.1
COc1cc(OC)cc(-c2cccc(-c3nc4c(s3)CNCC4)c2C)c1 [Example 34, 2-(3′,5′-dimethoxy-2-methylbiphenyl-3-yl)-4,5,6,7-tetrahydro[1,3]thiazolo[5,4-c]pyridine] | ≤ 0.1
N#Cc1c(-c2ccc3c(c2)OCCO3)ccnc1-c1nc2c(s1)CNCC2 [Example 35, 4-(2,3-dihydro-1,4-benzodioxin-6-yl)-2-(4,5,6,7-tetrahydro[1,3]thiazolo[5,4-c]pyridin-2-yl)nicotinonitrile] | 0.1 to 0.5
Cc1c(-c2cccc(OCCO)c2)cccc1-c1nc2c(s1)CNCC2 [Example 36, 2-{[2′-methyl-3′-(4,5,6,7-tetrahydro[1,3]thiazolo[5,4-c]pyridin-2-yl)biphenyl-3-yl]oxy}ethanol] | 0.1 to 0.5
COc1cc(OC)c(F)c(-c2cccc(-c3nc4c(s3)CNCC4)c2C)c1F [Example 37, 2-(2′,6′-difluoro-3′,5′-dimethoxy-2-methylbiphenyl-3-yl)-4,5,6,7-tetrahydro[1,3]thiazolo[5,4-c]pyridine] | ≤ 0.1

Source: patent publication US11608337B2, “Heterocyclic compounds as immunomodulators” (Incyte Corporation, priority 2016, dated 2023)
